{"source": "patent US10934283B2", "about": "“COMT inhibiting methods and compositions” (LIEBER INSTITUTE FOR BRAIN DEVELOPMENT, priority 2015, dated 2021)"}
{"target": "T1, catechol-O-methyltransferase (COMT) (Homo sapiens, UniProt P21964)", "T1 construct": "M51A variant) was expressed in HEK 293F cells", "T1 sequence (P21964 52-271 limits assumed)": "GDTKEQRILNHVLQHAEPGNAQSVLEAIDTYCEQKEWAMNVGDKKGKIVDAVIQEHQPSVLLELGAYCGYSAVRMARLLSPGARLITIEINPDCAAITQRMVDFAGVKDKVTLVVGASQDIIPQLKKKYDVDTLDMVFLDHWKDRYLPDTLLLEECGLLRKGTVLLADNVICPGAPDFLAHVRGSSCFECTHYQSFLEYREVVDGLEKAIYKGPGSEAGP", "experiment": "COMT inhibition assay (HTRF, production of SAH from SAM)", "type": "biochemical", "conditions": "table does not say MB-COMT or S-COMT", "summary_of_the_method": "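Membranes from HEK293F cells expressing MB-COMT (M51A variant) incubated with 20 μM SAM and 1.5 μM dopamine plus compound (10 concentrations) for 40 min at 37 °C; S-COMT (Val158) at 0.15 ng/well used 100 μM dopamine, 15 min. SAH measured by HTRF against a standard curve; pIC50 from 4-parameter logistic fit.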"}
{"smiles": "Cc1ccccc1CN1CCn2cc(O)c(=O)cc2C1", "note": "[Example 33, 7-hydroxy-2-(2-methylbenzyl)-1,2,3,4-tetrahydro-8H-pyrido[1,2-a]pyrazin-8-one]", "Activity range (pIC50)": "+++ (three plus signs (+++) is associated with a pIC50 of above about 7)"}
{"smiles": "CCc1ccc(CN2CCn3cc(O)c(=O)cc3C2C(C)C)cc1", "note": "(centres unmarked) [Example 120, 2-(4-ethylbenzyl)-7-hydroxy-1-(propan-2-yl)-1,2,3,4-tetrahydro-8H-pyrido[1,2-a]pyrazin-8-one]", "Activity range (pIC50)": "+++ (three plus signs (+++) is associated with a pIC50 of above about 7)"}
{"smiles": "O=c1cc2n(cc1O)CCN(Cc1ccc(F)cc1)C2", "note": "[Example 3, 2-[(4-fluorophenyl)methyl]-7-hydroxy-3,4-dihydro-1H-pyrido[1,2-a]pyrazin-8-one]", "Activity range (pIC50)": "+ (a single plus (+) is associated with a pIC50 of from about 4.5 to 6)"}
{"smiles": "COc1ccccc1CN1CCn2cc(O)c(=O)cc2C1", "note": "[Example 51, 7-hydroxy-2-(2-methoxybenzyl)-1,2,3,4-tetrahydro-8H-pyrido[1,2-a]pyrazin-8-one]", "Activity range (pIC50)": "++ (two plus signs (++) is associated with a pIC50 of from about 6 to 7)"}
{"smiles": "O=c1cc2n(cc1O)CCN(C1CCc3c(Cl)cccc31)C2", "note": "(centres unmarked) [Example 73, 2-(4-chloro-2,3-dihydro-1H-inden-1-yl)-7-hydroxy-1,2,3,4-tetrahydro-8H-pyrido[1,2-a]pyrazin-8-one]", "Activity range (pIC50)": "+++ (three plus signs (+++) is associated with a pIC50 of above about 7)"}
{"smiles": "CC(c1ccccc1F)N1CCn2cc(O)c(=O)cc2C1", "note": "(centres unmarked) [Example 98, 2-[1-(2-fluorophenyl)ethyl]-7-hydroxy-1,2,3,4-tetrahydro-8H-pyrido[1,2-a]pyrazin-8-one]", "Activity range (pIC50)": "++ (two plus signs (++) is associated with a pIC50 of from about 6 to 7)"}
{"smiles": "O=c1cc2n(cc1O)CCN(Cc1ccc(-c3cccnc3)cc1)C2", "note": "[Example 12, 7-hydroxy-2-[4-(pyridin-3-yl)benzyl]-1,2,3,4-tetrahydro-8H-pyrido[1,2-a]pyrazin-8-one]", "Activity range (pIC50)": "++ (two plus signs (++) is associated with a pIC50 of from about 6 to 7)"}
{"smiles": "Cc1cccc2c1CCC2N1CCn2cc(O)c(=O)cc2C1", "note": "(centres unmarked) [Example 92, 7-hydroxy-2-(4-methyl-2,3-dihdyro-1H-inden-1-yl)-1,2,3,4-tetrahydro-8H-pyrido[1,2-a]pyrazin-8-one]", "Activity range (pIC50)": "+++ (three plus signs (+++) is associated with a pIC50 of above about 7)"}
{"smiles": "O=c1cc2n(c(F)c1O)CCN(Cc1ccc(OC(F)(F)F)cc1)C2", "note": "[Example 135, 2-[(4-(trifluoromethoxy)phenyl)methyl]-6-fluoro-7-hydroxy-3,4-dihydro-1H-pyrido[1,2-a]pyrazin-8-one]", "Activity range (pIC50)": "++ (two plus signs (++) is associated with a pIC50 of from about 6 to 7)"}
{"smiles": "O=c1cc2n(cc1O)CCN(Cc1cc(F)cc(F)c1)C2", "note": "[Example 32, 2-(3,5-difluorobenzyl)-7-hydroxy-1,2,3,4-tetrahydro-8H-pyrido[1,2-a]pyrazin-8-one]", "Activity range (pIC50)": "++ (two plus signs (++) is associated with a pIC50 of from about 6 to 7)"}
{"smiles": "Cc1nn(-c2ccccc2)c(C)c1CN1CCn2cc(O)c(=O)cc2C1", "note": "[Example 103, 2-[(3,5-dimethyl-1-phenyl-1H-pyrazol-4-yl)methyl]-7-hydroxy-1,2,3,4-tetrahydro-8H-pyrido[1,2-a]pyrazin-8-one]", "Activity range (pIC50)": "++ (two plus signs (++) is associated with a pIC50 of from about 6 to 7)"}
{"smiles": "CCc1ccc(CN2CCn3cc(O)c(=O)cc3C2c2cccc(-c3cccnc3)c2)cc1", "note": "(centres unmarked) [Example 126, 2-(4-ethylbenzyl)-7-hydroxy-1-[3-(pyridin-3-yl)phenyl]-1,2,3,4-tetrahydro-8H-pyrido[1,2-a]pyrazin-8-one]", "Activity range (pIC50)": "+++ (three plus signs (+++) is associated with a pIC50 of above about 7)"}
{"smiles": "O=c1cc2n(cc1O)CCN(Cc1cc(Cl)cc(Cl)c1)C2", "note": "[Example 21, 2-(3,5-dichlorobenzyl)-7-hydroxy-1,2,3,4-tetrahydro-8H-pyrido[1,2-a]pyrazin-8-one]", "Activity range (pIC50)": "+++ (three plus signs (+++) is associated with a pIC50 of above about 7)"}
{"smiles": "CCc1ccc(C(C)N2CCn3cc(O)c(=O)cc3C2)cc1", "note": "(centres unmarked) [Example 16, 2-[1-(4-ethylphenyl)ethyl]-7-hydroxy-1,2,3,4-tetrahydro-8H-pyrido[1,2-a]pyrazin-8-one]", "Activity range (pIC50)": "+++ (three plus signs (+++) is associated with a pIC50 of above about 7)"}
{"smiles": "O=c1cc2n(cc1O)CCN(Cc1cc([N+](=O)[O-])c(Cl)cc1Cl)C2", "note": "[Example 66, 2-[(2,4-dichloro-5-nitro-phenyl)methyl]-7-hydroxy-3,4-dihydro-1H-pyrido[1,2-a]pyrazin-8-one]", "Activity range (pIC50)": "+++ (three plus signs (+++) is associated with a pIC50 of above about 7)"}
{"smiles": "O=c1cc2n(cc1O)CCN(Cc1ccc3c(c1)OCCO3)C2", "note": "[Example 48, 2-(2,3-dihydro-1,4-benzodioxin-6-ylmethyl)-7-hydroxy-1,2,3,4-tetrahydro-8H-pyrido[1,2-a]pyrazin-8-one]", "Activity range (pIC50)": "++ (two plus signs (++) is associated with a pIC50 of from about 6 to 7)"}
{"smiles": "O=c1cc2n(cc1O)CCN(Cc1cccc(OC(F)(F)F)c1)C2", "note": "[Example 6, 7-hydroxy-2-[3-(trifluoromethoxy)benzyl]-1,2,3,4-tetrahydro-8H-pyrido[1,2-a]pyrazin-8-one]", "Activity range (pIC50)": "+++ (three plus signs (+++) is associated with a pIC50 of above about 7)"}
{"smiles": "O=c1cc2n(cc1O)CCN(c1ccccc1OC(F)(F)F)C2", "note": "[Example 114, 7-hydroxy-2-[2-(trifluoromethoxy)phenyl]-1,2,3,4-tetrahydro-8H-pyrido[1,2-a]pyrazin-8-one]", "Activity range (pIC50)": "++ (two plus signs (++) is associated with a pIC50 of from about 6 to 7)"}
{"smiles": "O=c1cc2n(cc1O)CCN(Cc1ccc(C3CC3)cc1)C2", "note": "[Example 23, 2-(4-cyclopropylbenzyl)-7-hydroxy-1,2,3,4-tetrahydro-8H-pyrido[1,2-a]pyrazin-8-one]", "Activity range (pIC50)": "+++ (three plus signs (+++) is associated with a pIC50 of above about 7)"}
{"smiles": "O=c1cc2n(cc1O)CCN(Cc1n[nH]c3ccccc13)C2", "note": "[Example 42, 7-hydroxy-2-(1H-indazol-3-ylmethyl)-1,2,3,4-tetrahydro-8H-pyrido[1,2-a]pyrazin-8-one]", "Activity range (pIC50)": "++ (two plus signs (++) is associated with a pIC50 of from about 6 to 7)"}
{"smiles": "O=c1cc2n(cc1O)CCN(C(c1ccccc1)C(F)(F)F)C2", "note": "(centres unmarked) [Example 101, 7-hydroxy-2-(2,2,2-trifluoro-1-phenylethyl)-1,2,3,4-tetrahydro-8H-pyrido[1,2-a]pyrazin-8-one]", "Activity range (pIC50)": "+++ (three plus signs (+++) is associated with a pIC50 of above about 7)"}
{"smiles": "Cc1ccc(-c2nc3sccn3c2CN2CCn3cc(O)c(=O)cc3C2)cc1", "note": "[Example 56, 7-hydroxy-2-{[6-(4-methylphenyl)imidazo[2,1-b][1,3]thiazol-5-yl]methyl}-1,2,3,4-tetrahydro-8H-pyrido[1,2-a]pyrazin-8-one]", "Activity range (pIC50)": "++ (two plus signs (++) is associated with a pIC50 of from about 6 to 7)"}
{"smiles": "CC(c1ccc(C#N)cc1)N1CCn2cc(O)c(=O)cc2C1", "note": "(centres unmarked) [Example 94, 4-[1-(7-hydroxy-8-oxo-1,3,4,8-tetrahydro-2H-pyrido[1,2-a]pyrazin-2-yl)ethyl]benzonitrile]", "Activity range (pIC50)": "++ (two plus signs (++) is associated with a pIC50 of from about 6 to 7)"}
{"smiles": "O=c1cc2n(cc1O)CCN(C1CCCCc3ccccc31)C2", "note": "(centres unmarked) [Example 86, 7-hydroxy-2-(6,7,8,9-tetrahydro-5H-benzo[7]annulen-5-yl)-1,2,3,4-tetrahydro-8H-pyrido[1,2-a]pyrazin-8-one]", "Activity range (pIC50)": "+++ (three plus signs (+++) is associated with a pIC50 of above about 7)"}
{"smiles": "O=c1c(O)cn2c(c1Br)CN(Cc1ccccc1Cl)CC2", "note": "[Example 139, 9-bromo-2-[(2-chlorophenyl)methyl]-7-hydroxy-3,4-dihydro-1H-pyrido[1,2-a]pyrazin-8-one]", "Activity range (pIC50)": "+++ (three plus signs (+++) is associated with a pIC50 of above about 7)"}
{"smiles": "CC(C)(C)c1ccc(CN2CCn3cc(O)c(=O)cc3C2)cc1", "note": "[Example 7, 2-(4-tert-butylbenzyl)-7-hydroxy-1,2,3,4-tetrahydro-8H-pyrido[1,2-a]pyrazin-8-one]", "Activity range (pIC50)": "+++ (three plus signs (+++) is associated with a pIC50 of above about 7)"}
{"smiles": "O=c1cc2n(cc1O)CCN(Cc1c(Cl)cccc1Cl)C2c1ccccc1", "note": "(centres unmarked) [Example 117, 2-(2,6-dichlorobenzyl)-7-hydroxy-1-phenyl-1,2,3,4-tetrahydro-8H-pyrido[1,2-a]pyrazin-8-one]", "Activity range (pIC50)": "+++ (three plus signs (+++) is associated with a pIC50 of above about 7)"}
{"smiles": "O=c1cc2n(cc1O)CCN(Cc1ccc(Cl)cc1Cl)C2", "note": "[Example 57, 7-hydroxy-2-[(2,4-dichlorophenyl)methyl]-1,2,3,4-tetrahydro-8H-pyrido[1,2-a]pyrazin-8-one]", "Activity range (pIC50)": "+++ (three plus signs (+++) is associated with a pIC50 of above about 7)"}
{"smiles": "O=c1cc2n(cc1O)CCN(Cc1ccc(C(F)(F)F)cc1)C2", "note": "[Example 2, 7-hydroxy-2-[4-(trifluoromethyl)benzyl]-1,2,3,4-tetrahydro-8H-pyrido[1,2-a]pyrazin-8-one]", "Activity range (pIC50)": "++ (two plus signs (++) is associated with a pIC50 of from about 6 to 7)"}
